{
  "source": "patent US9018178B2",
  "about": "“Method for the treatment of food, feed and agricultural products with a polyene antifungal compound” (DSM IP Assets B.V., priority 2007, dated 2015)",
  "origin": "cited, not measured here",
  "tested_on": "common food spoilage yeasts and moulds",
  "conditions": "most strains of common food spoilage yeasts and moulds",
  "data": [
    {"molecule": "C[C@@H]1C/C=C/C=C/C=C/C=C/[C@H](O[C@@H]2O[C@H](C)[C@@H](O)[C@H](N)[C@@H]2O)C[C@@H]2O[C@](O)(C[C@@H](O)C[C@H]3O[C@@H]3/C=C/C(=O)O1)C[C@H](O)[C@H]2C(=O)O", "note": "[natamycin]", "values": [
      {"measurement": "Concentrations inhibiting most strains", "result": "1-15 ppm"}
    ]}
  ]
}
